# Measured values taken from patent US20230076733A1, “Combination Therapy” (AGENCY FOR SCIENCE, TECHNOLOGY AND RESEARCH, priority 2020, published 2023).
# Several values for one entry are separate records, joined by “and”; a condition that tells them apart may be missing. Identical values can stand only once.
# Legend:
# Assay type in all cases: cell-based
# CFPAC-1 cells = test: soft agar colony formation assay, CFPAC-1 cells; details: for Colony count: duplicate wells
# Protocol: (§1) The IC50 and EC50 values for each combination partner (a) and (b) with the specific cell lines are determined from the response plot. A dose-response assay for each combination partner and the combination at different concentrations based on the IC50 values of each combination partner was performed. Computed EC50-EC95 values were then generated by a software (as disclosed herein) based on the drug concentration and the respective colony growth numbers.
# (§2) 6. Cell lines used and number of cells seeded per well
# (§3) (1) Base Layer—0.6% Agar per 300 μL per well.
# (§4) Microwave the agar for 1-2 min so that it is completely melted. Add 5.4 ml of the melted agar into 21.6 ml of pre-warmed media (All media and agar preparation is made in excess for 2.5 plates). Aliquot 300 μl of the suspension into each well, avoiding the first and last columns of the plates. Fill the first and last columns of wells with 500 μl of sterile water or phosphate buffered saline. Incubate the plates in 37° C. incubator for 45 min-1 hr to allow agar to solidify.
# (§5) (2) Middle Layer— 0.3% Agar plus corresponding number of cells per well
# (§6) Trypsinize the adherent cells and suspend them in 5 ml of media. Determine the number of cells in the suspension and calculate the volume of cell suspension required for seeding. Mix the agar and media together first, excluding the volume of cell suspension. Add the cell suspension last into the mixture. Mix well and aliquot 250 μl into each well containing the base layer. Incubate the plates in a 37° C. incubator for 1-1.5 hrs to allow the agar to solidify.
# (§7) Prepare the required concentration of compounds based on the IC50 values of each drug.
# (§8) (Pre-determine the IC50 values for each drug with the corresponding cell-line using a dose-response assay)
# (§9) Row A& B: Aliquot 250 μl of diluted Drug A per well
# (§10) Row C&D: Aliquot 250 μl of diluted Drug B per well
# (§11) Row E& F: Aliquot 250 μl of diluted Drug A and B mixed at 1:1 ratio for each well
# (§12) Assay Results Analysis Method • 1. Score the colonies after 2 to 3 weeks depending on the colony forming status for different cell line. • 2. Before scoring the colonies, add 35 μl MTT (5 mg/ml) to the wells with cells and incubate at 37° C. for 2-3 hrs depending on the intensity of colour development. • 3. Once the colonies are stained, count the total number of colonies formed using the Oxford Optronix GelCount® instrument. • 4. Average the total number of colonies obtained for each drug dose point and represent it as a fraction over the control. This represents the fraction of colony growth. […] Incorporate the fraction of inhibition and the corresponding dose values into the Chou Talalay Software available online (http://www.combosyn.com/) to obtain the combination index values. • 6. The combination index values will give an indication as to whether the combined drugs are synergistic, antagonistic or additive in the treated cells, as shown in Table 2 below.
# FIG. 8 illustrates a dose-response assay plate containing CFPAC-1 cells (Test 1) after testing compounds at different concentrations based on the IC50 values of each compound. CFPAC-1 is a cell line established from cystic fibrosis and pancreatic ductal adenocarcinoma.
# MCAS cells = test: soft agar colony formation assay, MCAS cells; details: for Colony count: MCAS, duplicate wells
# Protocol: as §1, §2, §3, §4, §5, §6, §7, §8, §9, §10, §11
# as §12, with “6.” for “6. The combination index values will give an indication as to whether the combined drugs are synergistic, antagonistic or additive in the treated cells, as shown in Table 2 below.”
# MCAS is a cell line established from ovarian mucinous cystadenocarcinoma (ovarian cancer).
# EGI-1 cells = test: soft agar colony formation assay, EGI-1 cells; details: for Colony count: duplicate wells
# Protocol: as §1, §2, §3, §4, §5, §6, §7, §8, §9, §10, §11, §12
# FIG. 2 illustrates a dose-response assay plate containing EGI-1 cells (Test 1) after testing compounds at different concentrations based on the IC50 values of each compound. EGI-1 is a cell line established from cholangiocarcinoma (bile duct adenocarcinoma).
# TFK-1 cells = test: soft agar colony formation assay, TFK-1 cells; details: for Colony count: duplicate wells
# Protocol: as §1, §2, §3, §4, §5, §6, §7, §8, §9, §10, §11, §12
# FIG. 10 illustrates a dose-response assay plate containing TFK-1 cells (Test 1) after testing compounds at different concentrations based on the IC50 values of each compound. TFK-1 is a cell line established from cholangiocarcinoma (bile duct adenocarcinoma).
# HPAF-II cells = test: soft agar colony formation assay, HPAF-II cells; details: for Colony count: HPAF-II, duplicate wells
# Protocol: as §1, §2, §3, §4, §5, §6, §7, §8, §9, §10, §11, §12
# FIG. 4 illustrates of a dose-response assay plate containing HPAF-II cells (Test 1) after testing compounds at different concentrations based on the IC50 values of each compound. HPAF-II is a cell line established from pancreatic ductal adenocarcinoma (pancreatic cancer).
smiles,measurement,setting,value
"Cn1c(=O)c2c(ncn2CC(=O)Nc2ccc(-c3ccccc3)nn2)n(C)c1=O [Ex 1, 2-(1,3-dimethyl-2,6-dioxo-2,3-dihydro-1H-purin-7 (6H)-yl)-N-(6-phenylpyridazin-3-yl)acetamide]",Colony count,"CFPAC-1 cells; CFPAC-1, Test 1, 0.25x IC50: dose Olaparib 1.5625, Ex 1 0.00675, combination both 1:1",441 and 464
same,Colony count,"CFPAC-1 cells; CFPAC-1, Test 1, 0.5x IC50: dose Olaparib 3.125, Ex 1 0.0135, combination both 1:1",445 and 505
same,Colony count,"CFPAC-1 cells; CFPAC-1, Test 1, 1x IC50: dose Olaparib 6.25, Ex 1 0.027, combination both 1:1",386 and 412
same,Colony count,"CFPAC-1 cells; CFPAC-1, Test 1, 2x IC50: dose Olaparib 12.5, Ex 1 0.054, combination both 1:1",346 and 322
same,Colony count,"CFPAC-1 cells; CFPAC-1, Test 1, 4x IC50: dose Olaparib 25, Ex 1 0.108, combination both 1:1",315 and 320
same,Colony count,"CFPAC-1 cells; CFPAC-1, Test 2, 0.25x IC50: dose Olaparib 1.5625, Ex 1 0.00675, combination both 1:1",676 and 624
same,Colony count,"CFPAC-1 cells; CFPAC-1, Test 2, 1x IC50: dose Olaparib 6.25, Ex 1 0.027, combination both 1:1",649 and 563
same,Colony count,"CFPAC-1 cells; CFPAC-1, Test 2, 2x IC50: dose Olaparib 12.5, Ex 1 0.054, combination both 1:1",581 and 588
same,Colony count,"CFPAC-1 cells; CFPAC-1, Test 2, 4x IC50: dose Olaparib 25, Ex 1 0.108, combination both 1:1",536 and 527
same,IC50,"CFPAC-1 cells; CFPAC-1 cells, pre-determined by dose-response assay",27 nM
same,IC50,"MCAS cells; MCAS cells, pre-determined by dose-response assay",287 nM
same,Colony count,"MCAS cells; Test 1, 0.25x IC50: dose Olaparib 0.99475, Ex 1 0.07175, combination both 1:1",598 and 557
same,Colony count,"MCAS cells; Test 1, 0.5x IC50: dose Olaparib 1.9895, Ex 1 0.1435, combination both 1:1",462 and 445
same,Colony count,"MCAS cells; Test 1, 1x IC50: dose Olaparib 3.979, Ex 1 0.287, combination both 1:1",301 and 328
same,Colony count,"MCAS cells; Test 1, 2x IC50: dose Olaparib 7.958, Ex 1 0.574, combination both 1:1",252 and 273
same,Colony count,"MCAS cells; Test 1, 4x IC50: dose Olaparib 15.918, Ex 1 1.148, combination both 1:1",147 and 151
same,Colony count,"MCAS cells; Test 2, 0.25x IC50: dose Olaparib 0.99475, Ex 1 0.07175, combination both 1:1",976 and 921
same,Colony count,"MCAS cells; Test 2, 0.5x IC50: dose Olaparib 1.9895, Ex 1 0.1435, combination both 1:1",744 and 875
same,Colony count,"MCAS cells; Test 2, 1x IC50: dose Olaparib 3.979, Ex 1 0.287, combination both 1:1",694 and 706
same,Colony count,"MCAS cells; Test 2, 2x IC50: dose Olaparib 7.958, Ex 1 0.574, combination both 1:1",644 and 588
same,Colony count,"MCAS cells; Test 2, 4x IC50: dose Olaparib 15.916, Ex 1 1.148, combination both 1:1",419 and 326
same,Colony count,"EGI-1 cells; EGI-1, Test 1, 0.25x IC50: dose Olaparib 2.16362, Ex 1 0.00687, combination both 1:1",1742 and 1591
same,Colony count,"EGI-1 cells; EGI-1, Test 1, 0.5x IC50: dose Olaparib 4.32725, Ex 1 0.01375, combination both 1:1",1351
same,Colony count,"EGI-1 cells; EGI-1, Test 1, 1x IC50: dose Olaparib 8.6545, Ex 1 0.0275, combination both 1:1",985 and 912
same,Colony count,"EGI-1 cells; EGI-1, Test 1, 2x IC50: dose Olaparib 17.309, Ex 1 0.055, combination both 1:1",608 and 646
same,Colony count,"EGI-1 cells; EGI-1, Test 1, 4x IC50: dose Olaparib 34.618, Ex 1 0.11, combination both 1:1",515 and 465
same,Colony count,"EGI-1 cells; EGI-1, Test 2, 0.25x IC50: dose Olaparib 2.16362, Ex 1 0.00687, combination both 1:1",1488 and 1451
same,Colony count,"EGI-1 cells; EGI-1, Test 2, 0.5x IC50: dose Olaparib 4.32725, Ex 1 0.01375, combination both 1:1",1242 and 1139
same,Colony count,"EGI-1 cells; EGI-1, Test 2, 1x IC50: dose Olaparib 8.6545, Ex 1 0.0275, combination both 1:1",816 and 771
same,Colony count,"EGI-1 cells; EGI-1, Test 2, 2x IC50: dose Olaparib 17.309, Ex 1 0.055, combination both 1:1",568 and 476
same,Colony count,"EGI-1 cells; EGI-1, Test 2, 4x IC50: dose Olaparib 34.618, Ex 1 0.11, combination both 1:1",434 and 412
same,IC50,"EGI-1 cells; EGI-1 cells, pre-determined by dose-response assay",27.5 nM
same,Colony count,"TFK-1 cells; TFK-1, Test 1, 0.25x IC50: dose Olaparib 4.5, Ex 1 3, combination both 1:1",921 and 950
same,Colony count,"TFK-1 cells; TFK-1, Test 1, 0.5x IC50: dose Olaparib 9, Ex 1 6, combination both 1:1",805 and 700
same,Colony count,"TFK-1 cells; TFK-1, Test 1, 1x IC50: dose Olaparib 18, combination both 1:1",557 and 581
same,Colony count,"TFK-1 cells; TFK-1, Test 1, 2x IC50: dose Olaparib 36, Ex 1 24, combination both 1:1",402 and 384
same,Colony count,"TFK-1 cells; TFK-1, Test 1, 4x IC50: dose Olaparib 72, Ex 1 48, combination both 1:1",239 and 198
same,Colony count,"TFK-1 cells; TFK-1, Test 2, 0.25x IC50: dose Olaparib 4.5, Ex 1 3, combination both 1:1",916 and 840
same,Colony count,"TFK-1 cells; TFK-1, Test 2, 0.5x IC50: dose Olaparib 9, Ex 1 6, combination both 1:1",770 and 818
same,Colony count,"TFK-1 cells; TFK-1, Test 2, 1x IC50: dose Olaparib 18, combination both 1:1",567 and 559
same,Colony count,"TFK-1 cells; TFK-1, Test 2, 2x IC50: dose Olaparib 36, Ex 1 24, combination both 1:1",336 and 249
same,Colony count,"TFK-1 cells; TFK-1, Test 2, 4x IC50: dose Olaparib 72, Ex 1 48, combination both 1:1",101 and 148
same,IC50,"TFK-1 cells; TFK-1 cells, pre-determined by dose-response assay",12000 nM
same,IC50,"HPAF-II cells; HPAF-II cells, pre-determined by dose-response assay",7.7 nM
same,Colony count,"HPAF-II cells; Test 1, 0.25x IC50: dose Olaparib 9.7975, Ex 1 0,001929, combination both 1:1",564 and 493
same,Colony count,"HPAF-II cells; Test 1, 0.5x IC50: dose Olaparib 19.535, Ex 1 0.003883, combination both 1:1",499 and 416
same,Colony count,"HPAF-II cells; Test 1, 1x IC50: dose Olaparib 39.19, Ex 1 0,007577, combination both 1:1",387 and 453
same,Colony count,"HPAF-II cells; Test 1, 2x IC50: dose Olaparib 78.38, Ex 1 0.015354, combination both 1:1",362 and 345
same,Colony count,"HPAF-II cells; Test 1, 4x IC50: dose Olaparib 156.76, Ex 1 0.030707, combination both 1:1",260 and 201
same,Colony count,"HPAF-II cells; Test 2, 0.25x IC50: dose Olaparib 9.7975, Ex 1 0.001929, combination both 1:1",350 and 489
same,Colony count,"HPAF-II cells; Test 2, 0.5x IC50: dose Olaparib 13.595, Ex 1 0.003838, combination both 1:1",415 and 426
same,Colony count,"HPAF-II cells; Test 2, 1x IC50: dose Olaparib 39.19, Ex 1 0.007677, combination both 1:1",296
same,Colony count,"HPAF-II cells; Test 2, 2x IC50: dose Olaparib 78.38, Ex 1 0.015354, combination both 1:1",200 and 150
same,Colony count,"HPAF-II cells; Test 2, 4x IC50: dose Olaparib 156.76, Ex 1 0.030707, combination both 1:1",127 and 105
